The test system of experiment [1] is permeabilized MCF-7 cells. In words: Citrate efflux from permeabilized MCF-7 cells (induction phase in Oroboros oxygraph, enzymatic citrate measurement). In kind it is cell-based, human. To be noted: 4.56 × 10^6 cells/ml. How it is done: Stock culture of MCF-7 cells was obtained from American Type Culture Collection (ATCC® Number: HTB-22™). The cells were grown as adherent monolayers in big T75 flasks (Greiner Bio-One GmbH, Germany) in low glucose (1.0 g/L) DMEM with stable L-glutamine (PAA Laboratories GmbH, Austria) that was supplemented with 1 mM Na-pyruvate (Gibco®, REF 11360-039), 10% heat-inactivated fetal bovine serum (FBS), […] human recombinant insulin (Gibco) and antibiotics: penicillin (100 U/ml), streptomycin (100 μg/ml) and gentamicin at a final concentration of 50 μg/ml. MCF-7 cells were grown and maintained at 37° C. in a humidified incubator containing 5% CO2 in air. The cells were sub-cultured at 2-3 day intervals.
MCF-7 cells were harvested from 5 T75 flasks (72 h after their seeding at a subculturing ratio of 1/5) by means of accutase (a cell detachment agent) treatment.
After detachment, the cell were washed twice with Mitomed-B solution (see Table 2), supplemented with lmg/ml bovine serum albumin (BSA) and 3-5 μM leupeptin (protease inhibitor) with centrifugation (on a Heraus “Biofuge primo R” refrigerated centrifuge equipped with a swing-out rotor, 150×g for 7 min at 4° C.). After washing, the pellet was resuspended in 2.5 ml of Mitomed-B (supplemented with lmg/ml BSA and 3-5 μM leupeptin) and the cells were stored on melting ice.
The experiments were carried out in an Oroboros oxygraph. Two parallel chambers on the same device were used. Reaction medium was Lahus-B as described below (Table 3).
Saponine concetration suitable for viability of MCF-7 cells was defined as 30 μg/ml. Malate, 2 mM, was present in all protocols in the reaction medium. BMS303141 was used to inhibit activity of ATP-citratelyase to stop it from metabolizing free citrate that accumulates to the reaction medium. 1,2,3-benzenetricarboxylic acid was used to stop citrate efflux from mitochondria. Saponine incubation time was 5 minutes. Cytochrome c and CAT were injected to the reaction medium right at the end of the experiment to assess the quality of mitochondrial inner and outer membranes. […]

For experiment [2], the system named is permeabilized human breast cancer fibers. Put plainly: Citrate efflux from permeabilized fibers derived from human breast cancer clinical sample. The class given is cell-based. How it is done:
In order to reach experiment targets, the sarcolemma and plasma membranes in skinned tumor fibers were completely permeabilized by saponin treatment keeping the mitochondrial membranes intact (both tumor and healthy tissue samples from the same patient were processed equally). Namely, skinned fibers were transferred into plastic vials with pre-cooled (on ice) Lahus-A (Table 8) containing 50 μg/ml saponin and incubated with mild stirring (at 40 rpm) for 30 min at 4° C. Permeabilized fibers were then washed in pre-cooled solution Lahus-B (Table 3) for 5 min under mild stirring; this washing procedure was performed three times to completely remove saponin and all soluble metabolites. The washed samples were placed into Lahus-B (Table 3) and kept in the same medium (at 4° C.) until use.
The experiments were carried out in an Oroboros oxygraph. Two parallel chambers on the same device were used. Reaction medium was Lahus-B (Table 3).
Saponine concetration suitable for viability of skinned breast cancer fibers was defined as 50 μg/ml. Malate, 2 mM, was present in all protocols in the reaction medium. BMS303141 was used to inhibit activity of ATP-citrate lyase to stop it from metabolizing free citrate that accumulates to the reaction medium. 1,2,3-benzenetricarboxylic acid was used to stop citrate efflux from mitochondria. Cytochorome c and CAT were injected to the reaction medium right at the end of the experiment to assess the quality of mitochondrial inner and outer membranes.
Duration of the induction phase: 1 hour.
Once the induction medium was ended, the reaction medium was transferred to 2.5 ml Eppendorf tube for centrifugation (14 000 rpm, 7 minutes). Fiber was removed from the reaction medium and weighted for calculations. The supernatant from the centrifugation was collected through syringe filter and stored on ice. Remaining debris was discarded as biological waste.
900 μl of each supernatant was used to enzymatically measure concentration of citrate as described before (Petrarulo et al, 1995).

Marks after values point to notes of the source that are not given here.

As to `O=C(O)c1cccc(C(=O)O)c1C(=O)O` [1,2,3-BTC, 1,2,3-benzenetricarboxylic acid], the citrate efflux in experiment [1] (protocol 2: glutamate 5 mM + malate 2 mM, 1,2,3-BTC 1 mM, 1 hour induction (without inhibitor: 1428)) is on record as 1098 ng citrate per 10^6 cells per; in experiment [1] (protocol 4: pyruvate 0.05 mM + malate 2 mM, 1,2,3-BTC 1 mM, 1 hour induction (without inhibitor: 5564)), 1524 ng citrate per 10^6 cells per; in experiment [1] (protocol 6: PalCar 40 μM + malate 2 mM, 1,2,3-BTC 1 mM, 1 hour induction (without inhibitor: 3059)), 1156 ng citrate per 10^6 cells per; in experiment [2] (protocol 2: Glut/Mal, 1,2,3-BTC 1 mM, cancer fibers, footnote: result below detection limit (without inhibitor: 144.1, 172.1)) it was 41.7** ng citrate/mg × 60 min; in experiment [2] (protocol 4: Pyr/Mal, 1,2,3-BTC 1 mM, cancer fibers, footnote: result below detection limit (without inhibitor: 194.6)), 17.6** ng citrate/mg × 60 min; in experiment [2] (protocol 6: Palcar/Mal, 1,2,3-BTC 1 mM, cancer fibers (without inhibitor: 158.7)) it was 73.7 ng citrate/mg × 60 min. Further, in experiment [2] (permeabilized human breast cancer fibers, 1,2,3-BTC 1 mM), the “effect on citrate accumulation in the reaction medium” value was “blocked the citrate accumulation in the reaction medium”.

Source of the values: patent publication US10753924B2, “Method for selecting patients responsive for cancer treatments” (Mitogro OÜ, priority 2016, dated 2020).
